Laboratory results: the supplement of paper PMC11208160

Experiment: recombinant barcode read abundance after kanamycin selection (control-corrected) (log10(CPM+1)); higher = more efficient recombination; sequences stand for … in AGTGCAGAGAAAATCGGCCAGTTTTCTCTGCCTGCAGTCCGCATGCCGT…ATTTATGCAGCGGACTGCCTTTCTCCCAAAGTGATAAACCGGACAGTATCATGGACCGGTTTTCCCGGTAATCCGTATTTGCAAGGTTGGTTTCACT; site = the 11-nt target
How it was run: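 In a pooled screen in E. coli, targets were paired with target-binding loops of the IS621 bridge RNA. Each oligo carried a promoter, a target, a barcode and the first 104 bridge RNA bases driven by J23119, and was Gibson-cloned into a vector holding the remaining 73 bp and a T7-inducible recombinase before co-electroporation with a donor plasmid. Duplicate platings went onto chloramphenicol/ampicillin LB agar as the control or onto chloramphenicol/ampicillin/kanamycin with 0.1 mM IPTG. Recombination efficiency is the averaged, control-corrected count per million of barcodes at recombinant junctions, given as log10(CPM+1).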
With “CGGTCCCGATGGGTTCTAACCTGTTGCCATC [CGGTCCCCTTG_LTGcore_GA_RTGcore_GA] (site CGGTCCCCTTG) (LTG core: GA, RTG core: GA)” the “recombinant barcode read abundance (log10)” value was 0.3.
With “CGGTCCCGGTGGGTTCTAACCTGTTGCCAAG [CGGTCCCCTTG_LTGcore_GG_RTGcore_CT] (site CGGTCCCCTTG) (LTG core: GG, RTG core: CT)” the “recombinant barcode read abundance (log10)” value was 0.0912.
In the case of “CGGTCCCGTTGGGTTCTAACCTGTTGCCAAG [CGGTCCCCTTG_LTGcore_GT_RTGcore_CT] (site CGGTCCCCTTG) (LTG core: GT, RTG core: CT)”, the “recombinant barcode read abundance (log10)” value is reported as 0.292.
In the case of “GAGCCCAAATGGGTTCTAACCTGTTGCCTTT [GAGCCCACTAG_LTGcore_AA_RTGcore_AA] (site GAGCCCACTAG) (LTG core: AA, RTG core: AA)”, the “recombinant barcode read abundance (log10)” value is reported as 0.102.
With “GAGCCCAACTGGGTTCTAACCTGTTGCCTAG [GAGCCCACTAG_LTGcore_AC_RTGcore_CT] (site GAGCCCACTAG) (LTG core: AC, RTG core: CT)” the “recombinant barcode read abundance (log10)” value was 0.135.
In the case of “GAGCCCAAGTGGGTTCTAACCTGTTGCCTAG [GAGCCCACTAG_LTGcore_AG_RTGcore_CT] (site GAGCCCACTAG) (LTG core: AG, RTG core: CT)”, the “recombinant barcode read abundance (log10)” value is reported as 0.0502.
For “GAGCCCAATTGGGTTCTAACCTGTTGCCTAG [GAGCCCACTAG_LTGcore_AT_RTGcore_CT] (site GAGCCCACTAG) (LTG core: AT, RTG core: CT)”, the “recombinant barcode read abundance (log10)” value was 0.204.
With “GAGCCCACATGGGTTCTAACCTGTTGCCTTG [GAGCCCACTAG_LTGcore_CA_RTGcore_CA] (site GAGCCCACTAG) (LTG core: CA, RTG core: CA)” the “recombinant barcode read abundance (log10)” value was 0.49.
With “GAGCCCACCTGGGTTCTAACCTGTTGCCTAG [GAGCCCACTAG_LTGcore_CC_RTGcore_CT] (site GAGCCCACTAG) (LTG core: CC, RTG core: CT)” the “recombinant barcode read abundance (log10)” value was 0.29.
In the case of “GAGCCCACGTGGGTTCTAACCTGTTGCCTCG [GAGCCCACTAG_LTGcore_CG_RTGcore_CG] (site GAGCCCACTAG) (LTG core: CG, RTG core: CG)”, the “recombinant barcode read abundance (log10)” value is reported as 0.282.
With “GAGCCCACTTGGGTTCTAACCTGTTGCCTAA [GAGCCCACTAG_LTGcore_CT_RTGcore_TT] (site GAGCCCACTAG) (LTG core: CT, RTG core: TT)” the “recombinant barcode read abundance (log10)” value was 0.912.
With “GAGCCCACTTGGGTTCTAACCTGTTGCCTAC [GAGCCCACTAG_LTGcore_CT_RTGcore_GT] (site GAGCCCACTAG) (LTG core: CT, RTG core: GT)” the “recombinant barcode read abundance (log10)” value was 0.369.
With “GAGCCCACTTGGGTTCTAACCTGTTGCCTAG [GAGCCCACTAG_LTGcore_CT_RTGcore_CT] (site GAGCCCACTAG) (LTG core: CT, RTG core: CT)” the “recombinant barcode read abundance (log10)” value was 1.45.
With “GAGCCCACTTGGGTTCTAACCTGTTGCCTCT [GAGCCCACTAG_LTGcore_CT_RTGcore_AG] (site GAGCCCACTAG) (LTG core: CT, RTG core: AG)” the “recombinant barcode read abundance (log10)” value was 0.
With “GAGCCCACTTGGGTTCTAACCTGTTGCCTTG [GAGCCCACTAG_LTGcore_CT_RTGcore_CA] (site GAGCCCACTAG) (LTG core: CT, RTG core: CA)” the “recombinant barcode read abundance (log10)” value was 0.835.
With “GAGCCCACTTGGGTTCTAACCTGTTGCCTTT [GAGCCCACTAG_LTGcore_CT_RTGcore_AA] (site GAGCCCACTAG) (LTG core: CT, RTG core: AA)” the “recombinant barcode read abundance (log10)” value was 0.37.
With “GAGCCCAGGTGGGTTCTAACCTGTTGCCTCC [GAGCCCACTAG_LTGcore_GG_RTGcore_GG] (site GAGCCCACTAG) (LTG core: GG, RTG core: GG)” the “recombinant barcode read abundance (log10)” value was 0.596.
With “GAGCCCAGTTGGGTTCTAACCTGTTGCCTAC [GAGCCCACTAG_LTGcore_GT_RTGcore_GT] (site GAGCCCACTAG) (LTG core: GT, RTG core: GT)” the “recombinant barcode read abundance (log10)” value was 0.0734.
In the case of “GAGGCCTAATGGGTTCTAACCTGTTGCCATT [GAGGCCTCTTG_LTGcore_AA_RTGcore_AA] (site GAGGCCTCTTG) (LTG core: AA, RTG core: AA)”, the “recombinant barcode read abundance (log10)” value is reported as 0.223.
In the case of “GAGGCCTACTGGGTTCTAACCTGTTGCCAAG [GAGGCCTCTTG_LTGcore_AC_RTGcore_CT] (site GAGGCCTCTTG) (LTG core: AC, RTG core: CT)”, the “recombinant barcode read abundance (log10)” value is reported as 0.0351.
With “GAGGCCTACTGGGTTCTAACCTGTTGCCAGT [GAGGCCTCTTG_LTGcore_AC_RTGcore_AC] (site GAGGCCTCTTG) (LTG core: AC, RTG core: AC)” the “recombinant barcode read abundance (log10)” value was 0.0631.
In the case of “GAGGCCTATTGGGTTCTAACCTGTTGCCAAG [GAGGCCTCTTG_LTGcore_AT_RTGcore_CT] (site GAGGCCTCTTG) (LTG core: AT, RTG core: CT)”, the “recombinant barcode read abundance (log10)” value is reported as 0.196.
In the case of “GAGGCCTATTGGGTTCTAACCTGTTGCCAAT [GAGGCCTCTTG_LTGcore_AT_RTGcore_AT] (site GAGGCCTCTTG) (LTG core: AT, RTG core: AT)”, the “recombinant barcode read abundance (log10)” value is reported as 0.122.
With “GAGGCCTCATGGGTTCTAACCTGTTGCCAAG [GAGGCCTCTTG_LTGcore_CA_RTGcore_CT] (site GAGGCCTCTTG) (LTG core: CA, RTG core: CT)” the “recombinant barcode read abundance (log10)” value was 0.318.
For “GAGGCCTGATGGGTTCTAACCTGTTGCCAAG [GAGGCCTCTTG_LTGcore_GA_RTGcore_CT] (site GAGGCCTCTTG) (LTG core: GA, RTG core: CT)”, the “recombinant barcode read abundance (log10)” value was 0.0459.
In the case of “GAGGCCTGCTGGGTTCTAACCTGTTGCCAAG [GAGGCCTCTTG_LTGcore_GC_RTGcore_CT] (site GAGGCCTCTTG) (LTG core: GC, RTG core: CT)”, the “recombinant barcode read abundance (log10)” value is reported as 0.235.
With “GAGGCCTGTTGGGTTCTAACCTGTTGCCAAG [GAGGCCTCTTG_LTGcore_GT_RTGcore_CT] (site GAGGCCTCTTG) (LTG core: GT, RTG core: CT)” the “recombinant barcode read abundance (log10)” value was 0.586.
With “GAGGCCTTATGGGTTCTAACCTGTTGCCAAG [GAGGCCTCTTG_LTGcore_TA_RTGcore_CT] (site GAGGCCTCTTG) (LTG core: TA, RTG core: CT)” the “recombinant barcode read abundance (log10)” value was 0.145.
With “GAGGCCTTGTGGGTTCTAACCTGTTGCCAAG [GAGGCCTCTTG_LTGcore_TG_RTGcore_CT] (site GAGGCCTCTTG) (LTG core: TG, RTG core: CT)” the “recombinant barcode read abundance (log10)” value was 0.0876.
In the case of “GAGTCCAACTGGGTTCTAACCTGTTGCGTAG [GAGTCCACTAC_LTGcore_AC_RTGcore_CT] (site GAGTCCACTAC) (LTG core: AC, RTG core: CT)”, the “recombinant barcode read abundance (log10)” value is reported as 0.282.
For “GAGTCCAAGTGGGTTCTAACCTGTTGCGTAG [GAGTCCACTAC_LTGcore_AG_RTGcore_CT] (site GAGTCCACTAC) (LTG core: AG, RTG core: CT)”, the “recombinant barcode read abundance (log10)” value was 0.075.
For “GAGTCCACATGGGTTCTAACCTGTTGCGTAG [GAGTCCACTAC_LTGcore_CA_RTGcore_CT] (site GAGTCCACTAC) (LTG core: CA, RTG core: CT)”, the “recombinant barcode read abundance (log10)” value was 0.829.
For “GAGTCCACTTGGGTTCTAACCTGTTGCGTAC [GAGTCCACTAC_LTGcore_CT_RTGcore_GT] (site GAGTCCACTAC) (LTG core: CT, RTG core: GT)”, the “recombinant barcode read abundance (log10)” value was 0.0332.
For “GAGTCCACTTGGGTTCTAACCTGTTGCGTCA [GAGTCCACTAC_LTGcore_CT_RTGcore_TG] (site GAGTCCACTAC) (LTG core: CT, RTG core: TG)”, the “recombinant barcode read abundance (log10)” value was 0.0372.
For “GAGTCCACTTGGGTTCTAACCTGTTGCGTGC [GAGTCCACTAC_LTGcore_CT_RTGcore_GC] (site GAGTCCACTAC) (LTG core: CT, RTG core: GC)”, the “recombinant barcode read abundance (log10)” value was 0.0181.
For “GAGTCCACTTGGGTTCTAACCTGTTGCGTGG [GAGTCCACTAC_LTGcore_CT_RTGcore_CC] (site GAGTCCACTAC) (LTG core: CT, RTG core: CC)”, the “recombinant barcode read abundance (log10)” value was 0.0805.
For “GAGTCCACTTGGGTTCTAACCTGTTGCGTTA [GAGTCCACTAC_LTGcore_CT_RTGcore_TA] (site GAGTCCACTAC) (LTG core: CT, RTG core: TA)”, the “recombinant barcode read abundance (log10)” value was 0.102.
With “GAGTCCACTTGGGTTCTAACCTGTTGCGTTC [GAGTCCACTAC_LTGcore_CT_RTGcore_GA] (site GAGTCCACTAC) (LTG core: CT, RTG core: GA)” the “recombinant barcode read abundance (log10)” value was 0.671.
For “GAGTCCAGATGGGTTCTAACCTGTTGCGTTC [GAGTCCACTAC_LTGcore_GA_RTGcore_GA] (site GAGTCCACTAC) (LTG core: GA, RTG core: GA)”, the “recombinant barcode read abundance (log10)” value was 0.157.
With “GAGTCCAGTTGGGTTCTAACCTGTTGCGTAC [GAGTCCACTAC_LTGcore_GT_RTGcore_GT] (site GAGTCCACTAC) (LTG core: GT, RTG core: GT)” the “recombinant barcode read abundance (log10)” value was 0.0422.
In the case of “GAGTCCATATGGGTTCTAACCTGTTGCGTAG [GAGTCCACTAC_LTGcore_TA_RTGcore_CT] (site GAGTCCACTAC) (LTG core: TA, RTG core: CT)”, the “recombinant barcode read abundance (log10)” value is reported as 0.0591.
With “GAGTCCATGTGGGTTCTAACCTGTTGCGTAG [GAGTCCACTAC_LTGcore_TG_RTGcore_CT] (site GAGTCCACTAC) (LTG core: TG, RTG core: CT)” the “recombinant barcode read abundance (log10)” value was 0.0936.
In the case of “GAGTCCTAGTGGGTTCTAACCTGTTGCCTCT [GAGTCCTCTAG_LTGcore_AG_RTGcore_AG] (site GAGTCCTCTAG) (LTG core: AG, RTG core: AG)”, the “recombinant barcode read abundance (log10)” value is reported as 0.0613.
With “GAGTCCTCTTGGGTTCTAACCTGTTGCCTAC [GAGTCCTCTAG_LTGcore_CT_RTGcore_GT] (site GAGTCCTCTAG) (LTG core: CT, RTG core: GT)” the “recombinant barcode read abundance (log10)” value was 1.02.
In the case of “GAGTCCTCTTGGGTTCTAACCTGTTGCCTCT [GAGTCCTCTAG_LTGcore_CT_RTGcore_AG] (site GAGTCCTCTAG) (LTG core: CT, RTG core: AG)”, the “recombinant barcode read abundance (log10)” value is reported as 1.65.
